Our source for the IC50 values is patent US11878965B2, “Inhibitors of peptidylarginine deiminases” (Gilead Sciences, Inc., priority 2020, dated 2024).

Chain of human PAD4 (Q9UM07 2-663): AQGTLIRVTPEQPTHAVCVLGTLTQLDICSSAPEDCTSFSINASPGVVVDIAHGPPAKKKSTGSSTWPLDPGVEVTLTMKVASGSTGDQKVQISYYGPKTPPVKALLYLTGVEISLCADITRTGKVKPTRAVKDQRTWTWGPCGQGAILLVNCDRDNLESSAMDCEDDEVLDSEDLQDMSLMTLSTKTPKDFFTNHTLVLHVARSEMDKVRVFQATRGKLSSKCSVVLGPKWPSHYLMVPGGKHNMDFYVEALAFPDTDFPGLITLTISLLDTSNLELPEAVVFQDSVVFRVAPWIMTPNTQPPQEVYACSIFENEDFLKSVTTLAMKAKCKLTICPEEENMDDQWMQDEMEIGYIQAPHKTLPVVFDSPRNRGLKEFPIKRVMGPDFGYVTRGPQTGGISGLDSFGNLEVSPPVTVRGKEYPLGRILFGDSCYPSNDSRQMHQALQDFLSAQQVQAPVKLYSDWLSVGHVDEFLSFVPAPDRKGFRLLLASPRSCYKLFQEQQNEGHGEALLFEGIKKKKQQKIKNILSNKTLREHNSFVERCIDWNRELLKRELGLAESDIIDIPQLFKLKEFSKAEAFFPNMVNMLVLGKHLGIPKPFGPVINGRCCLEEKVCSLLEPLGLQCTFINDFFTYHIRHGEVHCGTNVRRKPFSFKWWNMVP

The test concerns the target human PAD4 (Homo sapiens (Human), UniProt Q9UM07). The test is described as follows: In Vitro PAD4 BAEE Biochemical Assay. The following applies: human PAD4, BAEE substrate; 5 nM PAD4, 2 mM calcium chloride, 3 mM BAEE; geometric mean of multiple experiments. In outline:
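Recombinant human PAD4 (His-SUMO tag removed, E. coli-expressed), 5 nM, preincubated with compound and 2 mM CaCl2 30 min at 25 °C in MOPS pH 7.6 with DTT; 3 mM BAEE added for 2 h at 25 °C, EDTA stop. Released ammonia detected by o-phthalaldehyde/DTT fluorescence (ex 405, em 535 nm).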
For `COc1cc(C(=O)N2CCC[C@@H](N)C2)cc2nc(-c3cc4ccc(N(C)C(=O)N(C)C)nc4n3CC3CC3)n(C)c12` [Example 117, (R)-1-(2-(5-(3-aminopiperidine-1-carbonyl)-7-methoxy-1-methyl-1H-benzo[d]imidazol-2-yl)-1-(cyclopropylmethyl)-1H-pyrrolo[2,3-b]pyridin-6-yl)-1,3,3-trimethylurea], the concentration for half-maximal inhibition (IC50) (commonly the midpoint of a concentration-inhibition curve) amounted to 1120 nM.

For `COc1cc(C(=O)N2[C@H]3CC[C@@H]2[C@H](N)C3)cc2nc(-c3cc4ccc([C@@H](C)NC(C)=O)nc4n3CC3CC3)n(C)c12` [Example 118, N-((R)-1-(2-(5-((1R,2R,4S)-2-amino-7-azabicyclo[2.2.1]heptane-7-carbonyl)-7-methoxy-1-methyl-1H-benzo[d]imidazol-2-yl)-1-(cyclopropylmethyl)-1H-pyrrolo[2,3-b]pyridin-6-yl)ethyl)acetamide], the IC50 came to 45.6 nM.

Consider `COc1cc(C(=O)N2CCC[C@@H](N)C2)cc2nc(-c3cc4ccc([C@@H](C)NC(=O)C(C)(C)C)nc4n3CC3CC3)n(C)c12` [Example 119, N-((R)-1-(2-(5-((R)-3-aminopiperidine-1-carbonyl)-7-methoxy-1-methyl-1H-benzo[d]imidazol-2-yl)-1-(cyclopropylmethyl)-1H-pyrrolo[2,3-b]pyridin-6-yl)ethyl)pivalamide], for which the IC50 is 78.4 nM.

For the compound `COc1cc(C(=O)N2[C@H]3CC[C@@H]2[C@H](N)C3)cc2nc(-c3cc4ccc([C@@H](C)NC(=O)C(C)(C)C)nc4n3CC3CC3)n(C)c12` [Example 120, N—((R)-1-(2-(5-((1R,2R,4S)-2-amino-7-azabicyclo[2.2.1]heptane-7-carbonyl)-7-methoxy-1-methyl-1H-benzo[d]imidazol-2-yl)-1-(cyclopropylmethyl)-1H-pyrrolo[2,3-b]pyridin-6-yl)ethyl)pivalamide], the IC50 worked out at 60.6 nM.

Regarding `COc1cc(C(=O)N2[C@H]3CC[C@@H]2[C@H](N)C3)cc2nc(-c3cc4ccc([C@@H](C)NC(=O)C56CC(F)(C5)C6)nc4n3CC3CC3)n(C)c12` [Example 121, N-((R)-1-(2-(5-((1R,2R,4S)-2-amino-7-azabicyclo[2.2.1]heptane-7-carbonyl)-7-methoxy-1-methyl-1H-benzo[d]imidazol-2-yl)-1-(cyclopropylmethyl)-1H-pyrrolo[2,3-b]pyridin-6-yl)ethyl)-3-fluorobicyclo[1.1.1]pentane-1-carboxamide], the IC50 was found to be 46.3 nM.

Regarding `COc1cc(C(=O)N2CCC[C@@H](N)C2)cc2nc(-c3cc4ccc([C@@H](C)NC(=O)C56CC(F)(C5)C6)nc4n3CC3CC3)n(C)c12` [Example 122, N-((R)-1-(2-(5-((R)-3-aminopiperidine-1-carbonyl)-7-methoxy-1-methyl-1H-benzo[d]imidazol-2-yl)-1-(cyclopropylmethyl)-1H-pyrrolo[2,3-b]pyridin-6-yl)ethyl)-3-fluorobicyclo[1.1.1]pentane-1-carboxamide], the IC50 is 93.9 nM.

In the case of `COc1cc(C(=O)N2[C@H]3CC[C@@H]2[C@H](N)C3)cc2nc(-c3cc4ccc([C@@H](C)NC(=O)c5ccccc5)nc4n3CC3CC3)n(C)c12` [Example 123, N-((R)-1-(2-(5-((1R,2R,4S)-2-amino-7-azabicyclo[2.2.1]heptane-7-carbonyl)-7-methoxy-1-methyl-1H-benzo[d]imidazol-2-yl)-1-(cyclopropylmethyl)-1H-pyrrolo[2,3-b]pyridin-6-yl)ethyl)benzamide], the IC50 is 29.2 nM.

For the compound `COc1cc(C(=O)N2CCC[C@@H](N)C2)cc2nc(-c3cc4ccc([C@@H](C)NC(=O)c5ccccc5)nc4n3CC3CC3)n(C)c12` [Example 124, N-((R)-1-(2-(5-((R)-3-aminopiperidine-1-carbonyl)-7-methoxy-1-methyl-1H-benzo[d]imidazol-2-yl)-1-(cyclopropylmethyl)-1H-pyrrolo[2,3-b]pyridin-6-yl)ethyl)benzamide], the IC50 is 54.6 nM.

Turning to `COc1cc(C(=O)N2CCC[C@@H](N)C2)cc2nc(-c3cc4ccc([C@@H](C)NC(=O)C56CC(F)(C5)C6)nc4n3CC3CC3)n(C3CC3)c12` [Example 125, N-((R)-1-(2-(5-((R)-3-aminopiperidine-1-carbonyl)-1-cyclopropyl-7-methoxy-1H-benzo[d]imidazol-2-yl)-1-(cyclopropylmethyl)-1H-pyrrolo[2,3-b]pyridin-6-yl)ethyl)-3-fluorobicyclo[1.1.1]pentane-1-carboxamide], the IC50 stood at 71.3 nM.

Take `COc1cc(C(=O)N2CCC[C@@H](N)C2)cc2nc(-c3cc4ccc([C@@H](C)NC(=O)c5ccccc5)nc4n3CC3CC3)n(C3CC3)c12` [Example 126, N-((R)-1-(2-(5-((R)-3-aminopiperidine-1-carbonyl)-1-cyclopropyl-7-methoxy-1H-benzo[d]imidazol-2-yl)-1-(cyclopropylmethyl)-1H-pyrrolo[2,3-b]pyridin-6-yl)ethyl)benzamide]: the IC50 was 90.8 nM.

On to `COc1cc(C(=O)N2[C@H]3CC[C@@H]2[C@H](N)C3)cc2nc(-c3cc4ccc([C@@H](C)NC(=O)C(C)(C)C)nc4n3CC3CC3)n(C3CC3)c12` [Example 127, N-((R)-1-(2-(5-((1R,2R,4S)-2-amino-7-azabicyclo[2.2.1]heptane-7-carbonyl)-1-cyclopropyl-7-methoxy-1H-benzo[d]imidazol-2-yl)-1-(cyclopropylmethyl)-1H-pyrrolo[2,3-b]pyridin-6-yl)ethyl)pivalamide], for which the IC50 worked out at 63.7 nM.

As to `COc1cc(C(=O)N2CCC[C@@H](N)C2)cc2nc(-c3cc4ccc([C@@H](C)NC(=O)C(C)(C)C)nc4n3CC3CC3)n(C3CC3)c12` [Example 128, N-((R)-1-(2-(5-((R)-3-aminopiperidine-1-carbonyl)-1-cyclopropyl-7-methoxy-1H-benzo[d]imidazol-2-yl)-1-(cyclopropylmethyl)-1H-pyrrolo[2,3-b]pyridin-6-yl)ethyl)pivalamide], the IC50 is 61.5 nM.

On to `COc1cc(C(=O)N2[C@H]3CC[C@@H]2[C@H](N)C3)cc2nc(-c3cc4ccc([C@@H](C)NC(=O)c5ccccc5)nc4n3CC3CC3)n(C3CC3)c12` [Example 129, N-((R)-1-(2-(5-((1R,2R,4S)-2-amino-7-azabicyclo[2.2.1]heptane-7-carbonyl)-1-cyclopropyl-7-methoxy-1H-benzo[d]imidazol-2-yl)-1-(cyclopropylmethyl)-1H-pyrrolo[2,3-b]pyridin-6-yl)ethyl)benzamide], for which the IC50 was determined as 86 nM.

As for `COc1cc(C(=O)N2[C@H]3CC[C@@H]2[C@H](N)C3)cc2nc(-c3cc4ccc([C@@H](C)NC(=O)C56CC(F)(C5)C6)nc4n3CC3CC3)n(C3CC3)c12` [Example 130, N-((R)-1-(2-(5-((1R,2R,4S)-2-amino-7-azabicyclo[2.2.1]heptane-7-carbonyl)-1-cyclopropyl-7-methoxy-1H-benzo[d]imidazol-2-yl)-1-(cyclopropylmethyl)-1H-pyrrolo[2,3-b]pyridin-6-yl)ethyl)-3-fluorobicyclo[1.1.1]pentane-1-carboxamide], the IC50 came out at 45.1 nM.

Regarding `COc1cc(C(=O)N2[C@H]3CC[C@@H]2[C@H](N)C3)cc2nc(-c3cc4ccc([C@@H](C)NC(C)=O)nc4n3CC3CC3)n(C3CC3)c12` [Example 131, N-((R)-1-(2-(5-((1R,2R,4S)-2-amino-7-azabicyclo[2.2.1]heptane-7-carbonyl)-1-cyclopropyl-7-methoxy-1H-benzo[d]imidazol-2-yl)-1-(cyclopropylmethyl)-1H-pyrrolo[2,3-b]pyridin-6-yl)ethyl)acetamide], the concentration for half-maximal inhibition (IC50) is 25.9 nM.

As for `COc1cc(C(=O)N2CCC[C@@H](N)C2)cc2nc(-c3cc4ccc([C@@H](C)NC(C)=O)nc4n3CC3CC3)n(C3CC3)c12` [Example 132, N-((R)-1-(2-(5-((R)-3-aminopiperidine-1-carbonyl)-1-cyclopropyl-7-methoxy-1H-benzo[d]imidazol-2-yl)-1-(cyclopropylmethyl)-1H-pyrrolo[2,3-b]pyridin-6-yl)ethyl)acetamide], the IC50 was found to be 70.7 nM.

`COc1cc(C(=O)N2[C@H]3CC[C@@H]2[C@H](N)C3)cc2nc(-c3cc4ccc([C@@H](C)NC(=O)C56CC(F)(C5)C6)cc4n3CC3CC3)n(C)c12` [Example 133, N-((R)-1-(2-(5-((1R,2R,4S)-2-amino-7-azabicyclo[2.2.1]heptane-7-carbonyl)-7-methoxy-1-methyl-1H-benzo[d]imidazol-2-yl)-1-(cyclopropylmethyl)-1H-indol-6-yl)ethyl)-3-fluorobicyclo[1.1.1]pentane-1-carboxamide]: the IC50 is 32.2 nM.

Turning to `COc1cc(C(=O)N2[C@H]3CC[C@@H]2[C@H](N)C3)cc2nc(-c3cc4ccc([C@@H](C)NC(=O)C56CC(C#N)(C5)C6)cc4n3CC3CC3)n(C)c12` [Example 134, N-((R)-1-(2-(5-((1R,2R,4S)-2-amino-7-azabicyclo[2.2.1]heptane-7-carbonyl)-7-methoxy-1-methyl-1H-benzo[d]imidazol-2-yl)-1-(cyclopropylmethyl)-1H-indol-6-yl)ethyl)-3-cyanobicyclo[1.1.1]pentane-1-carboxamide], the IC50 worked out at 18.2 nM.

`COc1cc(C(=O)N2[C@H]3CC[C@@H]2[C@H](N)C3)cc2nc(-c3cc4ccc([C@@H](C)NC(=O)c5cnn(C)c5)cc4n3CC3CC3)n(C)c12` [Example 135, N-((R)-1-(2-(5-((1R,2R,4S)-2-amino-7-azabicyclo[2.2.1]heptane-7-carbonyl)-7-methoxy-1-methyl-1H-benzo[d]imidazol-2-yl)-1-(cyclopropylmethyl)-1H-indol-6-yl)ethyl)-1-methyl-1H-pyrazole-4-carboxamide]: the IC50 is 13 nM.

Turning to `COc1cc(C(=O)N2[C@H]3CC[C@@H]2[C@H](N)C3)cc2nc(-c3cc4ccc([C@@H](C)NC(=O)c5ccccc5)cc4n3CC3CC3)n(C)c12` [Example 136, N-((R)-1-(2-(5-((1R,2R,4S)-2-amino-7-azabicyclo[2.2.1]heptane-7-carbonyl)-7-methoxy-1-methyl-1H-benzo[d]imidazol-2-yl)-1-(cyclopropylmethyl)-1H-indol-6-yl)ethyl)benzamide], the IC50 worked out at 27.6 nM.
